System: HeLa cells
Experiment: Cytotoxicity of the gel components against HeLa cells (MILLIQ water as control)
Assay type: cell-based
Conditions: components of the gel tested separately
Procedure: FIG. 27: cytotoxicities of (1) a gel formed from C-2 and Fe^2+ (“gel”), (2) PEG, and (3) Fe^2+ (“Fe”) against HeLa cells. MILLIQ water (“milliQ”) used as a control.
Because C-2 forms gels with Fe^2+ salts, which are biocompatible, these gels may have applications as therapeutic devices. First, the cytotoxicity of these gels was tested on HeLa cells to determine the effect of the components of the gels on cell viability. Due to the difficulty in assessing the toxicity of gel materials, the components of the gels were tested separately.

Question: With iron as the substance, how does the “cytotoxicity compared to MILLIQ water” value read?
Answer: Its value is “little cytotoxicity”.
